Legend:
[1] = target: T1, wt PKR (Homo sapiens, UniProt P30613); assay: PKR Mutant Assay, dose response (AC50), wild type PKR enzyme; format: biochemical
Method: (§1) • PKR or PKR mutant enzyme solution was diluted in assay buffer. • 2 μL of test compound was added into wells first, and then 180 μL reaction mix was added. • Reactions mixture with test compound was assembled except for ADP, and plates were stored for 60 minutes at room temperature. • 20 uL ADP was added to start reaction at room temperature and reaction progress was measured as changes in absorbance at 340 nm wavelength at room temperature.
(§2) Test Compound Preparation: • Test compound stock was made at 100× concentration in 100% DMSO (10 mM) • 1 to 3 dilutions were made for 11 points (i.e. 50 μl of first concentration added to 100 μl 100% DMSO to yield 3.33 mM, 50 μl of this added to 100 μl DMSO to yield 1.11 mM, and so forth) • 1 to 100 dilution into assay (2 μl in 200 μl) yielded starting concentration of 100 μM, decreasing 3 fold for 11 points.

[2] = target: PKR R510Q (Homo sapiens, UniProt P30613, R510Q); assay: PKR Mutant Assay, dose response (AC50), PKR R510Q; format: biochemical; details: PKR R510Q mutant enzyme
Sequence of PKR R510Q (P30613 whole entry R510Q): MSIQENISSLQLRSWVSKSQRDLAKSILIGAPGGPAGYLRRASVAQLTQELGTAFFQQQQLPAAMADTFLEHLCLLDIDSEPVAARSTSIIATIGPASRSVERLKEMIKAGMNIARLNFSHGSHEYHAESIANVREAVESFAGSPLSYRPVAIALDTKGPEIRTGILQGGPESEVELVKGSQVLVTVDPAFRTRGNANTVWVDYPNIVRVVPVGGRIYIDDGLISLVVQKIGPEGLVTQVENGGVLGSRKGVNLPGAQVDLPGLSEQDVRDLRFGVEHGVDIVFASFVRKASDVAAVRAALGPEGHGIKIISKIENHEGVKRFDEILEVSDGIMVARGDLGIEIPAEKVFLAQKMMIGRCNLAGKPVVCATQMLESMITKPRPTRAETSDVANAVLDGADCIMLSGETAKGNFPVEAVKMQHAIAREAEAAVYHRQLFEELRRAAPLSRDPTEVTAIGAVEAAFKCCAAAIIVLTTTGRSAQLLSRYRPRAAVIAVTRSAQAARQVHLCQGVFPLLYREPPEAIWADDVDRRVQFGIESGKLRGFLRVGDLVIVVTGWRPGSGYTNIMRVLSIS
Method: as §1, §2

[3] = target: PKR R532W (Homo sapiens, UniProt P30613, R532W); assay: PKR Mutant Assay, dose response (AC50), PKR R532W; format: biochemical; details: PKR R532W mutant enzyme
Sequence of PKR R532W (P30613 whole entry R532W): as the sequence (P30613 whole entry R510Q) above, with Q510R, R532W counted along it
Method: as §1, §2

[4] = target: T1, wt PKR; assay: wt PKR cell based assay

T1 sequence (P30613 whole entry): as the sequence (P30613 whole entry R510Q) above, with Q510R counted along it

SMILES | AC50 ([1]; wild type PKR enzyme) [nM] | AC50 [2] [nM] | AC50 [3] [nM] | AC50 [4] [nM] | AC50 ([1]; wild type PKR, enzymatic assay) [nM] | AC50 ([4]; wild type PKR) [nM]
CC(F)(F)CCC1(O)CCN(C(=O)c2ccc(NS(=O)(=O)c3cccc4scnc34)cc2F)CC1 [Compound 469, N-(4-(4-(3,3-difluorobutyl)-4-hydroxypiperidine-1-carbonyl)-3-fluorophenyl)benzo[d]thiazole-4-sulfonamide] | 101 to 1000 | 101 to 1000 | 101 to 1000 | 1010 to 10000 | – | –
Cc1cc(CC2(O)CCN(C(=O)c3ccc(NS(=O)(=O)c4cccc5nccnc45)cc3)CC2)sn1 [Compound 511, N-(4-(4-hydroxy-4-((3-methylisothiazol-5-yl)methyl)piperidine-1-carbonyl)phenyl)quinoxaline-5-sulfonamide] | < 100 | 101 to 1000 | < 100 | 101 to 1000 | – | –
O=C(c1ccc(NS(=O)(=O)c2cccc3scnc23)cc1)N1CCC(O)(c2sncc2Cl)CC1 [Compound 522, N-(4-(4-(4-chloroisothiazol-5-yl)-4-hydroxypiperidine-1-carbonyl)phenyl)benzo[d]thiazole-4-sulfonamide] | < 100 | 101 to 1000 | < 100 | < 100 | – | –
Cn1nccc1CC1(O)CCN(C(=O)c2ccc(NS(=O)(=O)c3cccc4nccnc34)cc2)CC1 [Compound 508, N-(4-(4-hydroxy-4-((1-methyl-1H-pyrazol-5-yl)methyl)piperidine-1-carbonyl)phenyl)quinoxaline-5-sulfonamide] | < 100 | 101 to 1000 | < 100 | < 100 | – | –
CC(F)(F)CCC1(O)CCN(C(=O)c2ccc(NS(=O)(=O)c3cc(F)cc4sc(N)nc34)cc2C#N)CC1 [Compound 491, 2-amino-N-(3-cyano-4-(4-(3,3-difluorobutyl)-4-hydroxypiperidine-1-carbonyl)phenyl)-6-fluorobenzo[d]thiazole-4-sulfonamide] | 101 to 1000 | 101 to 1000 | 101 to 1000 | 101 to 1000 | – | –
Cc1cc(C2(O)CCN(C(=O)c3ccc(NS(=O)(=O)c4cccc5nccnc45)cc3)CC2)sn1 [Compound 518, N-(4-(4-hydroxy-4-(3-methylisothiazol-5-yl)piperidine-1-carbonyl)phenyl)quinoxaline-5-sulfonamide] | < 100 | 101 to 1000 | < 100 | 101 to 1000 | – | –
Cc1ccccc1CC1(O)CCN(C(=O)c2ccc(NS(=O)(=O)c3cccc4scnc34)cc2)CC1 [Compound 125] | < 100 | < 100 | < 100 | < 100 | – | –
O=C(c1ccc(NS(=O)(=O)c2cccc3scnc23)cc1)N1CCC(O)(c2ccns2)CC1 [Compound 515, N-(4-(4-hydroxy-4-(isothiazol-5-yl)piperidine-1-carbonyl)phenyl)benzo[d]thiazole-4-sulfonamide] | – | 101 to 1000 | – | 101 to 1000 | – | –
CC(C)CC1(O)CCN(C(=O)c2ccc(NS(=O)(=O)c3cncc4cccnc34)cc2)CC1 [Compound 513, N-(4-(4-hydroxy-4-isobutylpiperidine-1-carbonyl)phenyl)-1,6-naphthyridine-8-sulfonamide] | < 100 | 101 to 1000 | < 100 | < 100 | – | –
CC(C)CC1(OC(=O)OCOP(=O)(O)O)CCN(C(=O)c2ccc(NS(=O)(=O)c3cccc4scnc34)cc2)CC1 [Compound 526] | 101 to 1000 | 101 to 1000 | 101 to 1000 | < 100 | – | –
O=C(c1ccc(NS(=O)(=O)c2cccc3nccnc23)cc1)N1CCC(O)(C2CCC(O)CC2)CC1 (stereo not drawn) [Compound 502, N-(4-(4-hydroxy-4-(4-hydroxycyclohexyl)piperidine-1-carbonyl)phenyl)quinoxaline-5-sulfonamide] | 101 to 1000 | 101 to 1000 | 101 to 1000 | 101 to 1000 | – | –
CC(F)(F)CCC1(O)CCN(C(=O)c2ccc(NS(=O)(=O)c3cccc4nccnc34)cc2C#N)CC1 [Compound 492] | 101 to 1000 | 101 to 1000 | 101 to 1000 | 101 to 1000 | – | –
Cc1n[nH]c(C)c1CC1(O)CCN(C(=O)c2ccc(NS(=O)(=O)c3cccc4scnc34)cc2)CC1 [Compound 514] | < 100 | 101 to 1000 | < 100 | 101 to 1000 | – | –
Nc1cnc2c(S(=O)(=O)Nc3ccc(C(=O)N4CCC(O)(CCCC(F)(F)F)CC4)cc3)cccc2n1 [Compound 482, 2-amino-N-(4-(4-hydroxy-4-(4,4,4-trifluorobutyl)piperidine-1-carbonyl)phenyl)quinoxaline-5-sulfonamide] | < 100 | < 100 | < 100 | < 100 | – | –
Cc1noc(C)c1CC1(O)CCN(C(=O)c2ccc(NS(=O)(=O)c3cccc4scnc34)cc2)CC1 [Compound 520, N-(4-(4-((3,5-dimethylisoxazol-4-yl)methyl)-4-hydroxypiperidine-1-carbonyl)phenyl)benzo[d]thiazole-4-sulfonamide] | < 100 | 101 to 1000 | < 100 | 101 to 1000 | – | –
Nc1cnc2c(S(=O)(=O)Nc3ccc(C(=O)N4CCC(O)(c5cccc(F)c5F)CC4)cc3)cccc2n1 [Compound 493, 2-amino-N-(4-(4-(2,3-difluorophenyl)-4-hydroxypiperidine-1-carbonyl)phenyl)quinoxaline-5-sulfonamide] | < 100 | < 100 | < 100 | < 100 | – | –

SMILES | AC50 ([1]; wild type PKR enzyme) [nM] | AC50 [2] [nM] | AC50 [3] [nM] | AC50 [4] [nM] | AC50 ([1]; wild type PKR, enzymatic assay) [nM] | AC50 ([4]; wild type PKR) [nM]
O=C(c1ccc(NS(=O)(=O)c2cccc3scnc23)cc1)N1CCC(O)(Cc2nc(Cl)cs2)CC1 [Compound 489, N-(4-(4-((4-chlorothiazol-2-yl)methyl)-4-hydroxypiperidine-1-carbonyl)phenyl)benzo[d]thiazole-4-sulfonamide] | < 100 | – | – | 101 to 1000 | – | –
O=C(c1ccc(NS(=O)(=O)c2cccc3scnc23)cc1)N1CCC(O)(Cc2cn[nH]c2)CC1 [Compound 498, N-(4-(4-((1H-pyrazol-4-yl)methyl)-4-hydroxypiperidine-1-carbonyl)phenyl)benzo[d]thiazole-4-sulfonamide] | < 100 | 101 to 1000 | < 100 | 101 to 1000 | – | –
CC(C)CC1(OP(=O)(O)O)CCN(C(=O)c2ccc(NS(=O)(=O)c3cccc4nccnc34)cc2)CC1 [Compound 525] | – | > 10000 | – | 101 to 1000 | – | –
Cc1n[nH]c(C)c1CC1(O)CCN(C(=O)c2ccc(NS(=O)(=O)c3cccc4nccnc34)cc2)CC1 [Compound 512, N-(4-(4-((3,5-dimethyl-1H-pyrazol-4-yl)methyl)-4-hydroxypiperidine-1-carbonyl)phenyl)quinoxaline-5-sulfonamide] | < 100 | 101 to 1000 | < 100 | 101 to 1000 | – | –
Cc1cc(C2(O)CCN(C(=O)c3ccc(NS(=O)(=O)c4cccc5scnc45)cc3)CC2)sn1 [Compound 528, N-(4-(4-hydroxy-4-(3-methylisothiazol-5-yl)piperidine-1-carbonyl)phenyl)benzo[d]thiazole-4-sulfonamide] | – | – | – | – | < 100 | 101 to 1000
O=C(c1ccc(NS(=O)(=O)c2cccc3scnc23)cc1)N1CCC(O)(c2scnc2Cl)CC1 [Compound 480, N-(4-(4-(4-chlorothiazol-5-yl)-4-hydroxypiperidine-1-carbonyl)phenyl)benzo[d]thiazole-4-sulfonamide] | < 100 | 101 to 1000 | < 100 | 101 to 1000 | – | –
O=C(c1ccc(NS(=O)(=O)c2cccc3nccnc23)cc1)N1CCC(O)(c2sncc2Cl)CC1 [Compound 516, N-(4-(4-(4-chloroisothiazol-5-yl)-4-hydroxypiperidine-1-carbonyl)phenyl)quinoxaline-5-sulfonamide] | – | 101 to 1000 | – | < 100 | – | –
CC1(O)CCC(C2(O)CCN(C(=O)c3ccc(NS(=O)(=O)c4cccc5nccnc45)cc3)CC2)CC1 (stereo not drawn) [Compound 505] | 101 to 1000 | 101 to 1000 | 101 to 1000 | – | – | –
CCn1cc(CC2(O)CCN(C(=O)c3ccc(NS(=O)(=O)c4cccc5scnc45)cc3)CC2)cn1 [Compound 506] | 1010 to 10000 | > 10000 | 1010 to 10000 | – | – | –
CC(C)CC1(O)CCN(C(=O)c2ccc(NS(=O)(=O)c3cccc4[nH]cnc34)cc2)CC1 [Compound 449] | > 10000 | > 10000 | > 10000 | – | – | –
CC(C)CC1(OP(=O)(O)O)CCN(C(=O)c2ccc(NS(=O)(=O)c3cccc4scnc34)cc2)CC1 [Compound 524] | > 10000 | – | > 10000 | 1010 to 10000 | – | –
O=C(c1ccc(NS(=O)(=O)c2cccc3nccnc23)cc1)N1CCC(O)(c2ccns2)CC1 [Compound 517] | – | 101 to 1000 | – | 101 to 1000 | – | –
CS(=O)(=O)CC1(O)CCN(C(=O)c2ccc(NS(=O)(=O)c3cccc4scnc34)cc2)CC1 [Compound 472] | 101 to 1000 | 1010 to 10000 | 101 to 1000 | – | – | –
O=C(c1ccc(NS(=O)(=O)c2cccc3scnc23)cc1)N1CCC(O)(c2nc(Cl)cs2)CC1 [Compound 481] | 1010 to 10000 | 1010 to 10000 | 101 to 1000 | – | – | –
CC1(O)CCC(C2(O)CCN(C(=O)c3ccc(NS(=O)(=O)c4cccc5scnc45)cc3)CC2)CC1 (stereo not drawn) [Compound 504] | 101 to 1000 | 1010 to 10000 | 1010 to 10000 | – | – | –
O=C1NCCC1CC1(O)CCN(C(=O)c2ccc(NS(=O)(=O)c3cccc4nccnc34)cc2)CC1 (stereo not drawn) [Compound 496] | 1010 to 10000 | > 10000 | 1010 to 10000 | – | – | –
